Measured values as given in US11524944B2, “2-phenylpyrimidine-4-carboxamides as AHR inhibitors” (Bayer Aktiengesellschaft, priority 2017, dated 2022).
pIC50: −log10 of the molar value.

Experiments:
Human AhR = biological target: T1, Human AhR (Homo sapiens, UniProt P35869); assay: Transactivation assay in human cell line (in vitro assay 1): antagonism; assay type: cell-based; settings: U87 glioblastoma cells, AHR inducible firefly luciferase reporter (DRE), 150 μM kynurenic acid, 20 hours
T1 construct: host or cells: U87 glioblastoma cells, stably transfected with a DRE firefly luciferase reporter and a constitutive renilla reporter
T1 sequence (P35869 11-848): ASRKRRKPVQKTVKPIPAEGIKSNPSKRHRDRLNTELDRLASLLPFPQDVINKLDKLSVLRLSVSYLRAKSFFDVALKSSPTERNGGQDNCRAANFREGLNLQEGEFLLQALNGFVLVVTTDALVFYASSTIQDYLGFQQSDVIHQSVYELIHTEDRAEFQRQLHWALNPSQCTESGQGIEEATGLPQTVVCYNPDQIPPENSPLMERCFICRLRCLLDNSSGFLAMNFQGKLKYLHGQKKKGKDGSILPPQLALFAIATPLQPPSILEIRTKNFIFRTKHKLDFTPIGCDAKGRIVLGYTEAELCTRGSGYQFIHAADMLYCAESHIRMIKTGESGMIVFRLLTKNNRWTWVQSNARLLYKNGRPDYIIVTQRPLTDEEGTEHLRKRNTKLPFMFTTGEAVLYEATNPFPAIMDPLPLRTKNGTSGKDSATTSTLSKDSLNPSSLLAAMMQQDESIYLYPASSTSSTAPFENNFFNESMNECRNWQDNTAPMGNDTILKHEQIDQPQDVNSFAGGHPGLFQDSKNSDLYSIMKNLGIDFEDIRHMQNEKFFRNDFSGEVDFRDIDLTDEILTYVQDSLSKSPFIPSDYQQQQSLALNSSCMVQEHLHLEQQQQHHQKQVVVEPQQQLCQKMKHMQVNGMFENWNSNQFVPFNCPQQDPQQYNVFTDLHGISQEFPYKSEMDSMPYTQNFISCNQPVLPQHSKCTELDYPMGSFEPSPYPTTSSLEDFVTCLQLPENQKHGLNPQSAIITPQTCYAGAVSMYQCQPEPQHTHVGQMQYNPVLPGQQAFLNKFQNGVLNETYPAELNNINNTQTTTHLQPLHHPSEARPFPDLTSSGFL
Method: (§1) Examples were tested in selected biological assays one or more times. When tested more than once, data are reported as either average values or as median values, wherein • the average value, also referred to as the arithmetic mean value, represents the sum of the values obtained divided by the number of times tested, and • the median value represents the middle number of the group of values when ranked in ascending or descending order. If the number of values in the data set is odd, the median is the middle value. If the number of values in the data set is even, the median is the arithmetic mean of the two middle values.
Transactivation Assay in Human Cell Line (In Vitro Assay 1)
(§2) Transactivation assay was carried out in U87 glioblastoma cells (ATCC) endogenously expressing AHR. In addition the cells were stably transfected with an AHR inducible firefly luciferase reporter gene construct that carried AHR-binding sites (DRE) in its promoter and a renilla reporter gene construct with constitutively active promoter. Kynurenic acid is an endogenous AHR activating ligand and was used to prestimulate test cells prior to testing the antagonistic properties of compounds.
In Vitro Assay 1: Antagonism in Human Cell Line
Firefly luciferase and Renilla activity was determined by the DualGlo Luciferase Assay System (Promega, #2920). Renilla activity was used to assess toxic effects of compounds.

Mouse AhR = biological target: T2, Mouse AhR (Mus musculus, UniProt P30561); assay: Transactivation assay in mouse cell line (in vitro assay 2): antagonism; assay type: cell-based; settings: Hepa 1c1c7 cells, AHR inducible firefly luciferase reporter (DRE), 200 μM kynurenic acid, 20 hours
T2 sequence (P30561 1-848 P471L/N533S/M589L): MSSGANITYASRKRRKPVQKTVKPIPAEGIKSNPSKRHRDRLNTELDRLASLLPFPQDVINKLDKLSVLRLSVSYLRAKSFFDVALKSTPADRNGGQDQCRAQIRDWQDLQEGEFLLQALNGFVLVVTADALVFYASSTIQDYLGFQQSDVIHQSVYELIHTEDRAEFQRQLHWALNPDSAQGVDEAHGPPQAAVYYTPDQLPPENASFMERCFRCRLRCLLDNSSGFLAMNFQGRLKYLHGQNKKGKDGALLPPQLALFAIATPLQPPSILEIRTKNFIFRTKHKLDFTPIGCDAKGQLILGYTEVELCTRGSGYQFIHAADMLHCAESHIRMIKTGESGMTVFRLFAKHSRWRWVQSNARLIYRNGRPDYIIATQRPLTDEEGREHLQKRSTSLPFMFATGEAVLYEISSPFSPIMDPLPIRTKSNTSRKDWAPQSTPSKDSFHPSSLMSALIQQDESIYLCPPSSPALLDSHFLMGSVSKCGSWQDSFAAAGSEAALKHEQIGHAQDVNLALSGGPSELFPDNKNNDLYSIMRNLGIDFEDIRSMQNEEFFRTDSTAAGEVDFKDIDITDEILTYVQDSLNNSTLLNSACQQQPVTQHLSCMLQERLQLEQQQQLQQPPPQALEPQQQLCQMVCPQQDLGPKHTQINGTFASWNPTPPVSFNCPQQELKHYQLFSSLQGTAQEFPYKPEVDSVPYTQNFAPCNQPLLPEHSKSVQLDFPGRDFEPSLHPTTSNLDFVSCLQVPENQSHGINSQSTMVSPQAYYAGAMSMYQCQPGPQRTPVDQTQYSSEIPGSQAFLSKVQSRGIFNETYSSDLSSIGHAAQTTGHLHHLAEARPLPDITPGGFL
Method: as §1
Transactivation Assay in Mouse Cell Line (In Vitro Assay 2)
as §2, with “Hepa 1c1c7” for “U87 glioblastoma”, “(ATCC #CRL-2026)” for “(ATCC)”, “its” for “its promoter and a renilla reporter gene construct with constitutively active”
In Vitro Assay 2: Antagonism in Mouse Cell Line
Firefly luciferase activity was determined by the SteadyGlo Luciferase Assay System (Promega, #E2550).

SMILES | pIC50 (Human AhR) | pIC50 (Mouse AhR)
C[C@@H](CO)NC(=O)c1cc(-c2ccc(Cl)cc2)nc(-c2cccc(C#N)c2)n1 [Example 70, 6-(4-chlorophenyl)-2-(3-cyanophenyl)-N-[(2S)-1-hydroxypropan-2-yl]pyrimidine-4-carboxamide] | 7.71 | 6.67
C[C@@H](CO)NC(=O)c1cc(-c2ccc(OC(F)(F)F)cc2)nc(-c2ccc(F)c(Cl)c2)n1 [Example 33, 2-(3-chloro-4-fluorophenyl)-N-[(2S)-1-hydroxypropan-2-yl]-6-[4-(trifluoromethoxy)phenyl]pyrimidine-4-carboxamide] | 7.01 | 6.40
O=C(NC1CCCC(F)(F)C1O)c1cc(-c2ccc(OC(F)(F)F)cc2)nc(-c2cccc(F)c2)n1 (stereo not shown) [Example 80, N-(3,3-difluoro-2-hydroxycyclohexyl)-2-(3-fluorophenyl)-6-[4-(trifluoromethoxy)phenyl]pyrimidine-4-carboxamide] | 8.19 | 8.16
CC(C)(O)CNC(=O)c1cc(-c2ccc(C(F)(F)F)cc2)nc(-c2cccc(F)c2)n1 [Example 8, 2-(3-Fluorophenyl)-N-(2-hydroxy-2-methylpropyl)-6-[4-(trifluoromethyl)phenyl]pyrimidine-4-carboxamide] | < 4.70 | < 4.70
C[C@@H](CO)NC(=O)c1cc(-c2cccc(F)c2)nc(-c2ccc(C(F)(F)F)cc2)n1 [Example 9, 6-(3-Fluorophenyl)-N-[(2S)-1-hydroxypropan-2-yl]-2-[4-(trifluoromethyl)phenyl]pyrimidine-4-carboxamide] | 7.82 | 8.06
COc1cc(F)cc(-c2nc(C(=O)N[C@@H](C)CO)cc(-c3ccc(Cl)cc3)n2)c1 [Example 76, 6-(4-chlorophenyl)-2-(3-fluoro-5-methoxyphenyl)-N-[(2S)-1-hydroxypropan-2-yl]pyrimidine-4-carboxamide] | 7.43 | 7.09
C[C@@H](CO)NC(=O)c1cc(-c2ccc(OC(F)(F)F)cc2)nc(-c2ccc(Cl)cc2)n1 [Example 29, 2-(4-chlorophenyl)-N-[(2S)-1-hydroxypropan-2-yl]-6-[4-(trifluoromethoxy)phenyl]pyrimidine-4-carboxamide] | 6.28 | 6.16
C[C@@H](CO)NC(=O)c1cc(-c2ccc(OC(F)(F)F)cc2)nc(-c2cccc(C#N)c2)n1 [Example 36, 2-(3-cyanophenyl)-N-[(2S)-1-hydroxypropan-2-yl]-6-[4-(trifluoromethoxy)phenyl]pyrimidine-4-carboxamide] | 7.74 | 6.74
C[C@@H](CO)NC(=O)c1cc(-c2cccc(F)c2)nc(-c2ccc(Cl)cc2)n1 [Example 10, 2-(4-Chlorophenyl)-6-(3-fluorophenyl)-N-[(2S)-1-hydroxypropan-2-yl]pyrimidine-4-carboxamide] | 7.45 | 7.62
CC(C)(O)CNC(=O)c1cc(-c2ccc(OC(F)(F)F)cc2)nc(-c2ccc(Cl)cc2)n1 [Example 14, 2-(4-chlorophenyl)-N-(2-hydroxy-2-methylpropyl)-6-[4-(trifluoromethoxy)phenyl]pyrimidine-4-carboxamide] | 6.63 | 6.83
Cc1cccc(-c2nc(C(=O)N[C@@H](C)CO)cc(-c3ccc(Cl)cc3)n2)c1 [Example 64, 6-(4-chlorophenyl)-N-[(2S)-1-hydroxypropan-2-yl]-2-(3-methylphenyl)pyrimidine-4-carboxamide] | 8.14 | 7.28

Results, then the compound that gave them:

pIC50 (Human AhR) | pIC50 (Mouse AhR) | SMILES
7.58 | 7.33 | Cc1cccc(-c2nc(C(=O)N[C@@H](C)CO)cc(-c3ccc(OC(F)(F)F)cc3)n2)c1 [Example 31, N-[(2S)-1-hydroxypropan-2-yl]-2-(3-methylphenyl)-6-[4-(trifluoromethoxy)phenyl]pyrimidine-4-carboxamide]
< 4.70 | < 4.70 | CC(C)(O)CNC(=O)c1cc(-c2ccc(OC(F)(F)F)cc2)nc(-c2cccc(F)c2)n1 [Example 7, 2-(3-Fluorophenyl)-N-(2-hydroxy-2-methylpropyl)-6-[4-(trifluoromethoxy)phenyl]pyrimidine-4-carboxamide]
6.41 | 5.29 | COc1ccc(-c2nc(C(=O)N[C@@H](C)CO)cc(-c3ccc(Cl)cc3)n2)cc1 [Example 63, 6-(4-chlorophenyl)-N-[(2S)-1-hydroxypropan-2-yl]-2-(4-methoxyphenyl)pyrimidine-4-carboxamide]
8.77 | 8.47 | C[C@@H](CO)NC(=O)c1cc(-c2ccc(Cl)cc2)nc(-c2cccc(F)c2)n1 [Example 4, 6-(4-Chlorophenyl)-2-(3-fluorophenyl)-N-[(2S)-1-hydroxypropan-2-yl]pyrimidine-4-carboxamide]
7.00 | 5.51 | CC(C)(O)CNC(=O)c1cc(-c2ccc(Cl)cc2)nc(-c2cc(Cl)cc(Cl)c2)n1 [Example 51, 6-(4-chlorophenyl)-2-(3,5-dichlorophenyl)-N-(2-hydroxy-2-methylpropyl)pyrimidine-4-carboxamide]
< 4.70 | 5.15 | CC(C)(O)CNC(=O)c1cc(-c2ccc(Cl)cc2)nc(-c2ccc(C(F)F)cc2)n1 [Example 61, 6-(4-chlorophenyl)-2-[4-(difluoromethyl)phenyl]-N-(2-hydroxy-2-methylpropyl)pyrimidine-4-carboxamide]
7.63 | 6.83 | C[C@@H](CO)NC(=O)c1cc(-c2ccc(Cl)cc2)nc(-c2ccc(F)c(Cl)c2)n1 [Example 66, 2-(3-chloro-4-fluorophenyl)-6-(4-chlorophenyl)-N-[(2S)-1-hydroxypropan-2-yl]pyrimidine-4-carboxamide]
7.61 | 6.79 | CC(C)(O)CNC(=O)c1cc(-c2ccc(Cl)cc2)nc(-c2ccc(F)cc2)n1 [Example 45, 6-(4-chlorophenyl)-2-(4-fluorophenyl)-N-(2-hydroxy-2-methylpropyl)pyrimidine-4-carboxamide]
6.78 | 6.42 | Cc1cc(-c2nc(C(=O)N[C@@H](C)CO)cc(-c3ccc(OC(F)(F)F)cc3)n2)ccc1F [Example 32, 2-(4-fluoro-3-methylphenyl)-N-[(2S)-1-hydroxypropan-2-yl]-6-[4-(trifluoromethoxy)phenyl]pyrimidine-4-carboxamide]
